Data reported in PubChem BioAssay AID1259407 (Chemical Carcinogenesis Research Information System (CCRIS), 2018).
Activity calls are given as the source filed them. The rule behind the calls is not given here.

Tested on: CCRIS mutagenicity, Ames/micronucleus/aberration tests
Experiment: CCRIS mutagenicity studies
[1] = Test System: AMES SALMONELLA TYPHIMURIUM, Strain/Indicator: TA98, Metabolic Activation: NONE, Method: STANDARD PLATE
[2] = Test System: AMES SALMONELLA TYPHIMURIUM, Strain/Indicator: TA98, Metabolic Activation: RAT, LIVER, S-9, AROCLOR 1254, Method: STANDARD PLATE
[3] = Test System: AMES SALMONELLA TYPHIMURIUM, Strain/Indicator: TA100, Metabolic Activation: NONE, Method: STANDARD PLATE
[4] = Test System: AMES SALMONELLA TYPHIMURIUM, Strain/Indicator: TA100, Metabolic Activation: RAT, LIVER, S-9, AROCLOR 1254, Method: STANDARD PLATE
[5] = Test System: AMES SALMONELLA TYPHIMURIUM, Strain/Indicator: TA1535, Metabolic Activation: NONE, Method: STANDARD PLATE
[6] = Test System: AMES SALMONELLA TYPHIMURIUM, Strain/Indicator: TA1537, Metabolic Activation: NONE, Method: STANDARD PLATE
[7] = Test System: AMES SALMONELLA TYPHIMURIUM, Strain/Indicator: TA98, Metabolic Activation: NONE, Method: PREINCUBATION
[8] = Test System: AMES SALMONELLA TYPHIMURIUM, Strain/Indicator: TA100, Metabolic Activation: NONE, Method: PREINCUBATION

In the case of `N#[N+]c1cccc2c1C(=O)c1ccccc1C2=O`, the mutagenic call [1] is reported as “inactive; negative”, the mutagenic call [2] is reported as “active; positive” and the mutagenic call [3] is reported as “inactive; negative”. For the same molecule, the mutagenic call [4] was “active; positive”, the mutagenic call [5] was “inactive; negative” and the mutagenic call [6] was “active; positive”. The mutagenic call (Test System: AMES SALMONELLA TYPHIMURIUM, Strain/Indicator: TA1537, Metabolic Activation: RAT, LIVER, S-9, AROCLOR 1254, Method: STANDARD PLATE) was “active; positive”.

In the case of `O.[Cu].[Cu]`, the mutagenic call [7] is reported as “inactive; negative”, the mutagenic call (Test System: AMES SALMONELLA TYPHIMURIUM, Strain/Indicator: TA98, Metabolic Activation: RAT, LIVER, S-9, KC 500, Method: PREINCUBATION) is reported as “inactive; negative” and the mutagenic call [8] is reported as “inactive; negative”. The mutagenic call (Test System: AMES SALMONELLA TYPHIMURIUM, Strain/Indicator: TA100, Metabolic Activation: RAT, LIVER, S-9, KC 500, Method: PREINCUBATION) was “inactive; negative”, the mutagenic call (Test System: AMES SALMONELLA TYPHIMURIUM, Strain/Indicator: TA1535, Metabolic Activation: NONE, Method: PREINCUBATION) was “inactive; negative” and the mutagenic call (Test System: AMES SALMONELLA TYPHIMURIUM, Strain/Indicator: TA1535, Metabolic Activation: RAT, LIVER, S-9, KC 500, Method: PREINCUBATION) was “inactive; negative”. The mutagenic call (Test System: AMES SALMONELLA TYPHIMURIUM, Strain/Indicator: TA1537, Metabolic Activation: NONE, Method: PREINCUBATION) was “inactive; negative”, the mutagenic call (Test System: AMES SALMONELLA TYPHIMURIUM, Strain/Indicator: TA1537, Metabolic Activation: RAT, LIVER, S-9, KC 500, Method: PREINCUBATION) was “inactive; negative” and the mutagenic call (Test System: AMES SALMONELLA TYPHIMURIUM, Strain/Indicator: TA1538, Metabolic Activation: NONE, Method: PREINCUBATION) was “inactive; negative”. For the same molecule, the mutagenic call (Test System: AMES SALMONELLA TYPHIMURIUM, Strain/Indicator: TA1538, Metabolic Activation: RAT, LIVER, S-9, KC 500, Method: PREINCUBATION) was “inactive; negative”, the mutagenic call (Test System: E. COLI, Strain/Indicator: WP2 UVRA, Metabolic Activation: NONE, Method: PREINCUBATION) was “inactive; negative” and the mutagenic call (Test System: E. COLI, Strain/Indicator: WP2 UVRA, Metabolic Activation: RAT, LIVER, S-9, KC 500, Method: PREINCUBATION) was “inactive; negative”.

In the case of `Cc1cc(=O)oc2cc3c(cc12)C1(C)OOC1(C)O3` (configuration not stated), the mutagenic call [8] is reported as “active; positive”.

`CC(C)CCC[C@@H](C)[C@H]1CC[C@H]2[C@@H]3CC=C4CCCC[C@]4(C)[C@H]3CC[C@]12C` was tested, and the mutagenic call (Test System: AMES SALMONELLA TYPHIMURIUM, Strain/Indicator: TA97A, Metabolic Activation: NONE, Method: STANDARD PLATE) was “inactive; negative”, the mutagenic call (Test System: AMES SALMONELLA TYPHIMURIUM, Strain/Indicator: TA97A, Metabolic Activation: RAT, LIVER, S-9, AROCLOR 1254, Method: STANDARD PLATE) was “inactive; negative” and the mutagenic call [3] was “inactive; negative”. The mutagenic call [4] was “inactive; negative”, the mutagenic call (Test System: AMES SALMONELLA TYPHIMURIUM, Strain/Indicator: TA102, Metabolic Activation: NONE, Method: STANDARD PLATE) was “inactive; negative” and the mutagenic call (Test System: AMES SALMONELLA TYPHIMURIUM, Strain/Indicator: TA102, Metabolic Activation: RAT, LIVER, S-9, AROCLOR 1254, Method: STANDARD PLATE) was “inactive; negative”. For the same molecule, the mutagenic call (Test System: AMES SALMONELLA TYPHIMURIUM, Strain/Indicator: TA104, Metabolic Activation: NONE, Method: STANDARD PLATE) was “inactive; negative” and the mutagenic call (Test System: AMES SALMONELLA TYPHIMURIUM, Strain/Indicator: TA104, Metabolic Activation: RAT, LIVER, S-9, AROCLOR 1254, Method: STANDARD PLATE) was “inactive; negative”.

In the case of `CC(=O)N(O)c1ccccc1`, the mutagenic call [1] is reported as “inactive; negative”, the mutagenic call [2] is reported as “inactive; negative” and the mutagenic call [3] is reported as “inactive; negative”. For the same molecule, the mutagenic call [4] was “inactive; negative”.

In the case of `Cc1nc2ccc(N)cc2nc1C`, the mutagenic call [7] is reported as “active; positive”, the mutagenic call (Test System: AMES SALMONELLA TYPHIMURIUM, Strain/Indicator: TA98, Metabolic Activation: RAT, LIVER, S-9, PCB, Method: PREINCUBATION) is reported as “active; positive” and the mutagenic call [8] is reported as “inactive; negative”. For the same molecule, the mutagenic call (Test System: AMES SALMONELLA TYPHIMURIUM, Strain/Indicator: TA100, Metabolic Activation: RAT, LIVER, S-9, PCB, Method: PREINCUBATION) was “active; positive”.

For `Cn1c(N)nc2c3nc(-c4ccccc4)c(-c4ccccc4)nc3ccc21`, the mutagenic call [2] was “inactive; negative”.

With `O=c1[nH]cc(/C=C/Br)c(=O)[nH]1` the mutagenic call (Test System: CHINESE HAMSTER V-79, Strain/Indicator: V-79/8-AZAGUANINE, Metabolic Activation: NONE) was “inactive; negative” and the mutagenic call (Test System: UDS RODENT HEPATOCYTES, Strain/Indicator: THY INCORP, Metabolic Activation: NONE) was “inactive; negative”.

With `ClC(Cl)c1ccccc1` the mutagenic call (Test System: AMES SALMONELLA TYPHIMURIUM, Strain/Indicator: TA98, Metabolic Activation: HAMSTER, LIVER, S-9, AROCLOR 1254 (30%), Method: PREINCUBATION) was “inactive; negative”, the mutagenic call [7] was “active; positive” and the mutagenic call (Test System: AMES SALMONELLA TYPHIMURIUM, Strain/Indicator: TA98, Metabolic Activation: RAT, LIVER, S-9, AROCLOR 1254 (30%), Method: PREINCUBATION) was “active; positive”. The mutagenic call (Test System: AMES SALMONELLA TYPHIMURIUM, Strain/Indicator: TA100, Metabolic Activation: HAMSTER, LIVER, S-9, AROCLOR 1254 (30%), Method: PREINCUBATION) was “active; positive”, the mutagenic call [8] was “active; positive” and the mutagenic call (Test System: AMES SALMONELLA TYPHIMURIUM, Strain/Indicator: TA100, Metabolic Activation: RAT, LIVER, S-9, AROCLOR 1254 (30%), Method: PREINCUBATION) was “active; positive”. For the same molecule, the mutagenic call (Test System: AMES SALMONELLA TYPHIMURIUM, Strain/Indicator: TA100, Metabolic Activation: RAT, LIVER, S-9, AROCLOR 1254, Method: PREINCUBATION) was “active; positive”.

With `C[Si](C)(C)N[Si](C)(C)C` the mutagenic call (Test System: AMES SALMONELLA TYPHIMURIUM, Strain/Indicator: TA98, Metabolic Activation: HAMSTER, LIVER, S-9, AROCLOR 1254 (10%), Method: STANDARD PLATE) was “inactive; negative”, the mutagenic call [1] was “inactive; negative” and the mutagenic call (Test System: AMES SALMONELLA TYPHIMURIUM, Strain/Indicator: TA98, Metabolic Activation: RAT, LIVER, S-9, AROCLOR 1254 (10%), Method: STANDARD PLATE) was “inactive; negative”. The mutagenic call (Test System: AMES SALMONELLA TYPHIMURIUM, Strain/Indicator: TA100, Metabolic Activation: HAMSTER, LIVER, S-9, AROCLOR 1254 (10%), Method: STANDARD PLATE) was “inactive; negative”, the mutagenic call [3] was “inactive; negative” and the mutagenic call (Test System: AMES SALMONELLA TYPHIMURIUM, Strain/Indicator: TA100, Metabolic Activation: RAT, LIVER, S-9, AROCLOR 1254 (10%), Method: STANDARD PLATE) was “inactive; negative”. For the same molecule, the mutagenic call (Test System: AMES SALMONELLA TYPHIMURIUM, Strain/Indicator: TA1535, Metabolic Activation: HAMSTER, LIVER, S-9, AROCLOR 1254 (10%), Method: STANDARD PLATE) was “inactive; negative”, the mutagenic call [5] was “inactive; negative” and the mutagenic call (Test System: AMES SALMONELLA TYPHIMURIUM, Strain/Indicator: TA1535, Metabolic Activation: RAT, LIVER, S-9, AROCLOR 1254 (10%), Method: STANDARD PLATE) was “inactive; negative”. The mutagenic call (Test System: AMES SALMONELLA TYPHIMURIUM, Strain/Indicator: TA1537, Metabolic Activation: HAMSTER, LIVER, S-9, AROCLOR 1254 (10%), Method: STANDARD PLATE) was “inactive; negative”, the mutagenic call [6] was “inactive; negative” and the mutagenic call (Test System: AMES SALMONELLA TYPHIMURIUM, Strain/Indicator: TA1537, Metabolic Activation: RAT, LIVER, S-9, AROCLOR 1254 (10%), Method: STANDARD PLATE) was “inactive; negative”. The mutagenic call (Test System: AMES SALMONELLA TYPHIMURIUM, Strain/Indicator: TA1538, Metabolic Activation: HAMSTER, LIVER, S-9, AROCLOR 1254 (10%), Method: STANDARD PLATE) was “inactive; negative”, the mutagenic call (Test System: AMES SALMONELLA TYPHIMURIUM, Strain/Indicator: TA1538, Metabolic Activation: NONE, Method: STANDARD PLATE) was “inactive; negative” and the mutagenic call (Test System: AMES SALMONELLA TYPHIMURIUM, Strain/Indicator: TA1538, Metabolic Activation: RAT, LIVER, S-9, AROCLOR 1254 (10%), Method: STANDARD PLATE) was “inactive; negative”. The mutagenic call (Test System: MOUSE LYMPHOMA, Strain/Indicator: L5178Y (TK+/TK-), Metabolic Activation: NONE, Method: SUSPENSION/PLATE) was “inactive; negative. reevaluation of results: inconclusive”.
